Data on 2 compounds can be found in patent US20110118277A1, “METHOD OF TREATING LIVER DISEASE” (priority 2003, published 2011).

In series [1] the test system is Mouse hepatic oval cells (HOC). The experiment in a line: Oval cell growth in culture (WST-8 cell number assay). The series is classed as cell-based. As for the experimental part:
Mouse hepatic oval cells (HOC) (from Dr. Bryon Petersen, University of Florida College of Medicine, Gainesville, Fla.) were maintained in culture with Iscove's modified DMEM according to the protocol described in PNAS 99: 8078-8083, 2002. To confirm that the cells retained their oval cell phenotype in our hands, expression of the embryonic isoform of pyruvate kinase (M2-PK) was evaluated by immunocytochemistry and immunoblot.
Sub-confluent HOC were harvested by gentle trypsinisation and resuspended in serum-free Iscove's modified Dulbecco's minimal essential medium (DMEM), at a density of 5,000 cells/100 μl/well in 96-well plates. […] After 44 hours, cell numbers were assessed by a further 4 h incubation with WST-8 tetrazolium reagent (Dojindo Molecular Technologies, Gaithersburg, Md.) as described in J Clin Invest 106: 501-509, 2000. In viable cells, the tetrazolium salt is metabolized to a colorimetric dye and cell number is proportional to the signal intensity at 450 nm Therefore, this assay reliably detects treatment-induced changes in cell number.
Oval cells were cultured in serum free medium (SF), serum or serum plus increasing concentrations of NE (a) or ISO (c). After 48 hours, the numbers of cells in culture were evaluated. […] Cell numbers were determined after 48 hours.

A further series has as its system TNF-α. The experiment in a line: Hepatic expression of TNF-α mRNA in whole liver RNA. The following applies: 3 controls and 3 PRZ-treated mice. The series is classed as in vivo, mouse. The text has this: The latter possibility merits further investigation because it has been reported that TNF-a increases in mice that are fed choline-deficient diets and that proliferating hepatic oval cells produce this cytokine. Moreover, it has been reported that TNF-α is required for oval cell expansion because this response is abrogated by genetic disruption of TNFR1. These observations are particularly intriguing because TNF-α and TNFR1 are necessary for liver regeneration after PH and other types of liver injury. There is strong evidence for cross talk between signaling mechanisms that are activated by TNF-α and those that are modulated by sympathetic neurotransmitters, such as NE. In addition, NE regulates TNF production and vice versa. Thus, SNS inhibition may promote HPC accumulation and decrease liver injury indirectly, by effecting TNF-α activity. […] However, before firm conclusions can be drawn, these studies must be extended to include more animals and assays for TNF-α protein and activity will be necessary.

The test system of a further series is hepatocyte DNA synthesis. The following applies: rats pre-treated immediately before PH; cited from earlier work.
The next series relates to norepinephrine. The following applies: 6-OHDA 100 mg/kg i.p. regimen, previously shown; cited from earlier work.
Series [2] has as its system C57BL-6 mice fed HMCDE diet. The series can be described thus: HMCDE diet-induced liver injury in mice: body weight, liver mass, histology, serum ALT, tolerability. The series is classed as in vivo, mouse. As for the experimental part:
C57BL-6 mice, 10-18 weeks old, were from Jackson Laboratory (Bar Harbor, Me.) were subjected to the following experiments.
In addition to choline deficiency the diet used here was also 50% deficient in methionine to enhance oxidative injury to the liver, This diet was administered with ethionine (0.15%) in drinking water (Hepatology 2001; 34; 519-522) and the combination treatment is hereafter referred to as half methionine choline deficient diet plus ethionine (HMCDE).
Chemical sympathectomy was achieved by intra-peritoneal (IP) injection of 6-hydroxydopamine (6-OHDA), 100 mg/kg for 5 consecutive days as described in Ann Surg 2001; 233:266-275. Thereafter, 6-OHDA was administered at 100 mg/kg i.p., three times per week to ensure continued sympathectomy.
Mice were divided into 4 groups, with each group containing 10 to 12 animals. […] Therefore, final results are derived from ˜100 mice (10-12 mice/group/experiment×2 experiments).
All mice were weighed at the beginning of the feeding period and weekly thereafter until killed. At the time of sacrifice, sera were collected from all the animals in each group and liver tissue from half the animals in each group. Collected liver tissues were either fixed in buffered formalin, preserved in OCT compound (Sakura, Torrance, Calif.) and processed for histology or snap frozen in liquid nitrogen and stored at −80° C. until RNA was isolated. The livers from the remaining animals in each group were prepared for flow cytometry as described below.
Wedges of liver from each of the mice were prepared for histology and immunochemistry as described previously (Am J Pathol 2002: 161:5210530 and Nat. Med. 2000; 6: 998-1003). For histology, tissues were formalin fixed, paraffin embedded and […] sections were stained with hematoxylin and eosin (H&E). Coded samples were examined by an experienced liver pathologist who was blinded to treatment groups. Hepatocellular fat accumulation was scored as, no fat 0, focal fat accumulation in <1% of the hepatocytes=F, fat in 1-30% of the hepatocytes 1+, fat in 31-60% of the hepatocytes=2+, and fat in 61-100% of the hepatocytes3+. To evaluate the amount of hepatocyte necrosis, the number of necrotic hepatocytes was counted in 10 randomly selected fields with a 20× lens.
Sera from all the animals were analysed for alanine aminotransferase (ALT) activity by the Clinical Chemistry laboratory of the Johns Hopkins Hospital.

Consider `COc1cc2nc(N3CCN(C(=O)c4ccco4)CC3)nc(N)c2cc1OC` [PRZ, prazosin], for which the “effect on proliferation induced by NE plus ISO” value in series [1] (PRZ 10 μM, NE (100 nM)+ISO (100 nM)) is recorded as “blocks catecholamine-induced proliferation”. Besides, the “effect on NE-induced oval cell proliferation” value in series [1] (prazosin 10 μM, pertussis toxin 100 ng/ml, PD98059 20 μM, SB202190 10 μM, 48 hours) is reported as “significantly attenuated”. Moreover, the “hepatic TNF-α gene expression versus HMCDE-treated controls” value in the series on TNF-α was “No differences in TNF-a gene expression were detected”. In addition, in the series with hepatocyte DNA synthesis, the “compensatory induction of hepatocyte DNA synthesis after partial hepatectomy” value is listed as “inhibited”.
In the case of `NCCc1cc(O)c(O)cc1O` [6-OHDA, 6-hydroxydopamine], the “norepinephrine in rodent tissues” value in the series on norepinephrine is “virtually deplete norepinephrine in rodent tissues”. In addition, the “weight loss versus HMCDE group” value in series [2] (FIG. 1, 4 weeks of feeding, P<0.05) is “lost less weight than the HMCDE group”. In series [2] (FIG. 3A, H&E), the “liver cell death / necrosis, representative liver section” value is on record as “minimal necrosis”. Further, in series [2] (FIG. 3A, H&E, representative HMCDE animal 2+), the “hepatocellular fat accumulation score, representative liver section” value is recorded as “F+”. Further, the “fat score versus HMCDE alone” value in series [2] (FIG. 3B) is recorded as “significantly less fat than the HMCDE alone group”. The “numbers of necrotic hepatocytes versus HMCDE diet alone” value in series [2] (FIG. 3C, P<0.05) is “reduced”. Moreover, the “serum alanine aminotransferase (ALT) versus HMCDE-fed mice” value in series [2] (FIG. 3D, P<0.03) is listed as “lower ALT levels”. Moreover, the “mean body weight lost” value in series [2] (mice fed HMCDE diet, 4 weeks, HMCDE alone lost 3 g) was 2 g. Moreover, in series [2] (mice fed HMCDE diet, 4 weeks, HMCDE alone lost 12%), the “body weight lost, % of starting body weight” value is recorded as 8%.
